Test results taken from patent US8796302B2 (priority 2004, dated 2014).

Legend:
superoxide = test: Superoxide release (SOD-inhibitable cytochrome c reduction) after LPS; assay type: cell-based, rat
Description: The release of superoxide was determined by measuring the superoxide dismutase (SOD)-inhibitable reduction of cytochrome c. To measure the immediate release of superoxide from microglia-enriched or neuron-glia after stimulation, cultures grown in 96-well plates were switched to phenol red-free HBSS (50 μl/well). To each well was added 50 μl of HBSS containing vehicle or DM. The cultures were then incubated at about 37° C. for about 30 min followed by 50 μl of ferricytochrome c (100 μM) in HBSS, with and without 600 U/ml SOD, 50 μl of vehicle or LPS in HBSS. The absorbance at 550 nm was read with a SpectraMax Plus microplate spectrophotometer (Molecular Devices, Sunnyvale, Calif.).
This example tests whether or not post-treatment with DM is still neuroprotective in LPS-induced neurotoxicity. Neuron-glia co-cultures as prepared in Example 1 were first treated with LPS (20 ng/ml) for twelve hours, and then LPS was removed by removing the media from the cultures and washing twice with PBS. Different concentrations of DM (10^−5, 10^−10, and 10^−14 M) were then added to the cultures and incubation was continued for another 6 or 7 days. The DA uptake and the superoxide production were measured as in Example 1 and 5. Results are expressed as a percentage of the control cultures and are the mean±S.E.M of three to six experiments with triplicates in each experiment. ##, P<0.01 compared with control culture; *, P<0.05 compared with the LPS-treated culture.
Primary enriched-microglia cultures were prepared as in Example 1. […] The intracellular ROS concentrations and superoxide amounts were measured as in Example 5. The data are expressed as the percent of the control cultures and are the mean±SEM of three experiments performed in triplicate. *P<0.05, **P<0.01, compared to control.

iROS = iROS production in neuron-glia cultures of PHOX+/+ and PHOX−/− mice; assay type: cell-based, mouse; conditions: DM 10^−14 M
Description: (§1) The neuron-glia cultures were treated with vehicle, LPS 10 ng/ml alone, and DM (10^−14 M) 30 min pretreatment followed by LPS treatment as in Example 1. Neurotoxicity was assessed by DA uptake as described in Example 1. TNFα production was measured by ELISA and iROS was determined by DCFDA as in Example 5. Results are expressed as a percentage of the control culture in FIG. 7A, pg/ml in FIG. 7B, and difference from control in FIG. 7C, respectively, and are the mean±S.E.M. of five individual experiments with triplicates in each experiment. *, P<0.05 compared with LPS culture.

TNFα [1] = test: Serum and liver TNFα (ELISA) in LPS/GalN endotoxic shock; assay type: in vivo, mouse
Description: Blood was collected from the eye while the mice were anesthetized, and then perfused with saline. Perfused liver samples were collected and frozen at −70° C. The blood samples were stored at 4° C. overnight and then centrifuged at 1500×g at 4° C. for 15 min. Serum was collected and stored at −70° C. for ALT, and TNFα ELISA assays. The frozen liver samples were homogenized in 10 mg/ml cold lysis buffer (20 mM Tris, 0.25 M sucrose, 2 mM EDTA, 10 mM EGTA, 1% Triton X-100 and protein cocktail inhibitor), and then centrifuged at 35,000×g for 40 min. The supernatant was then collected for protein assay using BCA Protein Assay Reagent Kit (Prod#23227, PIERCE), and ELISA for TNFα.
The levels of TNFα in the serum and liver were determined as in Example 1.
TNFα, an important factor that plays an important role in sepsis, was studied as a mechanism of the protective effect of DM in LPS/GalN-challenge mice. DM (12.5 mg/kg, […].) was administered to mice, followed by LPS/GalN challenge 30 min later. Serum and liver TNFα level was assessed using ELISA at the indicated time points.

TNFα [2] = test: TNFα production in neuron-glia cultures of PHOX+/+ and PHOX−/− mice; assay type: cell-based, mouse; conditions: DM 10^−14 M
Description: as §1, with “Neurotoxicity” for “The neuron-glia cultures were treated with vehicle, LPS 10 ng/ml alone, and DM (10^−14 M) 30 min pretreatment followed by LPS treatment as in Example 1. Neurotoxicity”
The rat and mouse ventral mesencephalic neuron-glia cultures were prepared as in Example 1. […] DA neurotoxicity was measured by using the [^3H] DA uptake assay as in Example 1. The data are expressed as the percent of the control cultures and are the mean±SEM. The release of TNFα was measured with a commercially available enzyme-linked immunosorbent assay kit. *P<0.05, **P<0.01, compared to control. The amount of TNFα was measured as in Example 2.

COX2 = test: Western blot of COX2 in microglia enriched cultures; assay type: cell-based, rat; conditions: femto-molar DM, 30 min pretreatment, LPS
Description: (§2) Western blots were used to analyze possible effects of DM on iNOS and COX2 production in rat microglia enriched cultures. The cultures were prepared and treated with vehicle, OM DM, 10^−14DM, LPS alone, and LPS with different concentrations of DM. The production of iNOS (inducible nitric oxide synthenase) and COX2 (cycloxyase 2) in the culture extracts were detected by Western Blot assay. Data in FIG. 9B represent the mean±S.E.

iNOS = test: Western blot of iNOS in microglia enriched cultures; assay type: cell-based, rat; conditions: femto-molar DM, 30 min pretreatment, LPS
Description: as §2

primary rat microglia = test: Microglia number (CyQUANT) in microglia-enriched cultures; assay type: cell-based
Description: Primary rat microglia-enriched cultures were used to determine if VPA treatment affected the total number of microglia. Microglia cell number was determined as follows. Primary microglia-enriched cultures were prepared from the whole brains of 1-day-old rats as described previously. After one day in vitro were treated with the indicated concentrations of VPA (0.05, 0.1, 0.2, 0.4, 0.6, 0.8, 1.0, or 1.2 mM) for 48 h, or with 0.6 mM VPA for different times (6, 12, 24 or 48 h). […] The total number of microglia was counted by using the CyQUANT cell proliferation assay kit (Molecular Probes, Inc.).

[3] = DM 12.5 mg/kg 30 min before LPS/GalN, 1.5 and 2 hours

SMILES	LPS-induced increase in the release of superoxide (superoxide; DM 10^−5 M and 10^−14 M pretreatment)	LPS-induced increase in superoxide production, post-treatment (superoxide; DM 10^−5 and 10^−14 M post-treatment, 24 h after LPS)	LPS-induced increase in the release of superoxide (superoxide; DM 10^−10 M pretreatment)	production of superoxide (superoxide; DM 10^−10 M, pre- or post-treatment)	LPS-induced iROS production (iROS; PHOX+/+ mice)	LPS-induced iROS production (iROS; PHOX−/− mice)	liver TNFα level (TNFα [1]; [3])	serum TNFα level (TNFα [1]; [3])	TNFα level (TNFα [1]; DM 30 min post LPS/GalN (data not shown))	LPS-induced TNFα production (TNFα [2]; PHOX+/+ mice)	LPS-induced TNFα production (TNFα [2]; PHOX−/− mice)	protein content of COX2 (COX2)	protein content of iNOS (iNOS)	number of microglia, concentration dependence (primary rat microglia; VPA 0.2 mM to 1.2 mM, 48 h)	number of microglia, time course (primary rat microglia; VPA 0.6 mM, 6-48 h, significant effect at 24 h and 48 h)	loss of microglia (primary rat microglia; VPA 0.8 mM, 48 h)
COc1ccc2c(c1)[C@@]13CCCC[C@H]1[C@@H](C2)N(C)CC3 [DM, d-3-methoxy-N-methylmorphinan]	significantly decreased	significantly inhibited LPS-induced increase in superoxide production	no significant reduction	neither pre-treatment nor post-treatment with DM at 10^−10 M significantly affected the production of superoxide	significantly inhibited iROS production	failed to show any effect	significantly decreased TNFα level	significantly decreased TNFα level	suppression of TNFα level was also found	significantly reduce TNFα production	not seen	failing to affect the protein content	failing to affect the protein content			
CCCC(CCC)C(=O)O [VPA, Valproic acid]														robust decrease in microglia number	time-dependently decreased the number of microglia	about 80%
